Reference: ChEMBL document CHEMBL2057158, “Synthesis and cytotoxic activity of 4-N-carboxybutyl-5-fluorocytosyl-Arg-Gln-Trp-Arg-Arg-Trp-Trp-Gln-Arg-NH₂” (Bioorg Med Chem Lett, 2012)
Active and inactive are the calls of the source.

Tests used:
Assay type in all cases: functional, cell-based
HepG2 [1] = experiment: Cytotoxicity against human HepG2 cells at 4 to 10 mM after 24 hrs by MTT assay
HepG2 [2] = experiment: Cytotoxicity in human HepG2 cells assessed as alteration of mitochondrial membrane potential by TMRM-fluorescence based high content screening assay
HepG2 [3] = experiment: Cytotoxicity in human HepG2 cells assessed as elevation of intracellular calcium concentration by Fluo4AM-fluorescence based high content screening assay
HepG2 [4] = experiment: Induction of apoptosis in human HepG2 cells assessed as morphological nuclear changes by Hoechst33342-staining based high content screening assay

Measured: Activity

Nc1nc(=O)[nH]cc1F
inactive: HepG2 [1] | HepG2 [2] | HepG2 [3] | HepG2 [4]
